Here are results for one substance from patent publication US8022051B2, “Composition for protection and improvement of skin, or reinforcing skin barrier function comprising phosphatidylserine” (Doosan Corporation, priority 2004, dated 2011).

The subject of experiment [1] is TPA-induced ear inflammation in CD-1 mouse. The experiment is described as follows: Alleviation of skin damage (inflammatory response) due to TPA in mouse ear. The class given is in vivo. The following applies: TPA 0.03%; applied 30 μl per cm^2 at 45 minutes and 4 hours after induction; phosphatidylserine 0.5%, clofibrate 1 mM, Wy14643 1 mM; FIG. 2. How it is done: In order to examine a skin damage (inflammatory response)-alleviating effect of the phosphatidylserine of the invention, which damage results from skin inflammation-inducing material, a following experiment was performed in accordance with a method used by Sheu et. al. (The Journal of Investigate Dermatology, 118, pp 94-101, 2002).
First, CD-1 mouse (male & female, 6-8 weeks, Charles River, US) was used as an experimental object. TPA (12-0-tetradecanoylphorbol-13-acetate) 0.03% (wt./vol.; in acetone) solution 10 μl, which was skin inflammation-inducing material, was treated to inner and outer parts of both ears of the experimental animal. The ear was thickened due to TPA and there occurred an inflammatory response. Then, clofibrate (1 mM) and Wy14643 (1 mM) as already-known positive control group, which are agonists of PPAR-a, and the 0.5% phosphatidylserine containing aqueous solution used as the Example 1 as an experimental material were applied to both ears in an amount of 30 μl per cm^2 at times of 45 minutes and 4 hours after the inflammation was induced. After that, the treated parts of the ears were subject to a biopsy, and the biopsy parts were fixed to 4% formaldehyde and then subject to Hematoxylene & Eosin (E&H) staining. The tissue slide stained with H&E was magnified to 100 folds to check the inflammation alleviation.

In experiment [2] the test system is skin keratinocyte cell line (HaCaT). The experiment is described as follows: Protection of skin keratinocytes from ultraviolet injury (MTT assay). The format is cell-based, human. The note with it: 25 mJ/cm^2 UVB; phosphatidylserine 20 and 40 μM, WY-14643 200 μM; 24 hours; FIG. 4.
Experiment [3] deals with normal human keratinocytes. The experiment is described as follows: Differentiation promoting effect in skin keratinocytes (western blot of involucrin and transglutaminase). The format is cell-based. The following applies: phosphatidylserine 20 and 40 μM, calcium 1.2 mM, clofibrate 200 and 400 μM; 24 hours; FIG. 5. How it is done: In order to examine a differentiation promoting effect in the skin keratinocytes by the phosphatidylserine of the invention, a following experiment was performed. First, the normal human keratinocytes (a gift from Dong-guk University) cultured in the KSFM (Keratinocyte-SFM; Gibco BRL/Life Technologies, USA) were seeded to the 35 mm^2 cell culture dish in an amount of 1.5×10^5 cells/dish and then cultured for a day. Next day, the culture medium was removed and a new culture medium containing 20 and 40 μM of phosphatidylserine aqueous solution, 1.2 mM calcium aqueous solution and 200 and 400 μM of clofibrate (Sigma, USA) added thereto was added and cultured for 24 hours. Next day, in order to make sure of a differentiation of the keratinocyte, a morphology change of the cell was checked with a phase contrast microscope (Nikon, Japan) and a photograph was taken with a digital camera attached to the microscope. In addition, a western blot was performed to check the protein expression amount of involucrin and transglutaminase, which have been known as a differentiation-marker proteins of the keratinocyte peculiar to the keratin. 500 μl of a lysis buffer having 2% sodium dodecyl sulfate (SDS) added thereto wad added and the cells were collected with a cell scrapper, so that cell lysate only was obtained. […]
A general note: Immunoblotting shows a protein as a band on a membrane.

Experiment [4] deals with skin of back region of CD-1 mouse. As to the kind of experiment: Skin differentiation promotion in the mouse (involucrin and loricrin expression). The class given is in vivo. The following applies: 0.5% aqueous solution, 50 μl two times per day for two weeks; compared to negative control group; FIG. 6. How it is done: In order to examine a differentiation promotion of the skin in a mouse model, a following experiment was performed.
First, 0.5% phosphatidylserine aqueous solution was applied to the skin of a back region of the mouse (CD-1 mouse, male&female, 6-8 weeks, Charles River, USA) in an amount of 50 μl two times per a day for two weeks. After that, the skin tissue of the treated region was subject to the biopsy and then the biopsy tissue was fixed to 4% formaldehyde and sliced. Then, antibodies for involucrin and loricrin were attached and an expression amount of the protein was examined.

The subject of experiment [5] is skin keratinocytes (HaCaT). As to the kind of experiment: Protection from ROS (hydrogen peroxide) in skin keratinocytes (MTT assay). The class given is cell-based. The note with it: FIG. 8. How it is done: In order to measure an effect of protecting the skin from the ROS in the keratinocyte by the phosphatidylserine of the invention, a following experiment was performed.
First, the skin keratinocytes (HaCaT) were seeded to the 24-well plate in an amount of 5×10^4 cells/well. Next day, it was treated with 25 μM phosphatidylserine aqueous solution (Doosan Biotech, Korea) (phosphatidylserine-treated group), 100 μM vitamin C (ascorbic acid-treated group) and 100 μM vitamin E (a-tocopherol-treated group) as the positive control group and then cultured for 24 hours. Next day, it was treated with 1 mM hydrogen peroxide (H2O2) and then cultured for about 1˜1.5 hours. Then, a cell viability was examined with the MTT assay.
On the technique in general: Formazan colour is commonly taken as a measure of viable cells.

In experiment [6] the test system is fibroblasts. As to the kind of experiment: Expression level of pro-collagen and MMP-1 in fibroblasts (western blot). The class given is cell-based. The note with it: 20 μM, FIG. 10. How it is done: In order to examine a skin aging-suppressing efficacy of the phosphatidylserine of the invention, it was quantitatively measured the expression amounts of the pro-collagen and the matrix metalloproteinase (MMP). It was tried a protein-antibody reaction through an electrophoresis (western blot) as the quantitative method. The cultivation was performed in manners of irradiating the ultraviolet to the fibroblasts (a gift from Seoul National University, Korea) and otherwise. After that, it was treated with the phosphatidylserine (20 μM), the cell was collected to extract the protein parts. The extracted protein was dissolved in the sodium dodecyl sulfate (SDS) and then subject to the electrophoresis on the SDS-polyacrylamide gel. […] An amount of the protein was measured using the color.

As to phosphatidylserine, the “inflammation alleviation (H&E stained ear tissue)” value in experiment [1] is on record as “inflammation was alleviated”. Further, the “protection of skin keratinocytes from ultraviolet injury (cell survival, MTT)” value in experiment [2] is listed as “protected the skin keratinocytes from the ultraviolet injury”. Besides, the “protein expression of involucrin and transglutaminase” value in experiment [3] is on record as “rapidly increased the expressions of the proteins”. Further, the “expression amounts of involucrin and loricrin in skin” value in experiment [4] is listed as “remarkably increased”. Further, the “protection effect from reactive oxygen species compared with the positive control material” value in experiment [5] (phosphatidylserine 25 μM versus 100 μM positive controls) was “same protection effect with a smaller amount”. The “protection effect from reactive oxygen species (cell viability, MTT)” value in experiment [5] (phosphatidylserine 25 μM, vitamin C 100 μM, vitamin E 100 μM, 24 hours, then 1 mM H2O2 about 1-1.5 hours) is “exhibited the protection effect”. Also, the “expression amount of MMP-1” value in experiment [6] is “decreased”. In addition, the “expression amount of pro-collagen” value in experiment [6] (with ultraviolet irradiation and otherwise) is on record as “increased”.
